Measured values reported in patent US20140221390A1, “PROPHYLACTIC AND/OR THERAPEUTIC AGENT FOR NON-ALCOHOLIC STEATOHEPATITIS” (Kowa Company, Ltd., priority 2010, published 2014).
Counter-ions that a name gives are not always drawn.

Assays:
Type in all cases: in vivo
[1] = test system: LDL receptor-knockout mice; experiment: Effect in LDL receptor-knockout mouse NASH model (Western diet); details: 12 weeks
Excerpt: An effect in LDL receptor-knockout mice fed with the Western diet which were known to develop fatty liver and hepatic inflammation, i.e., characteristic conditions of NASH (Yoshimatsu M. et al. Int J Exp Pathol., 85(6), 335-43 (2004)) was examined. In the present test, monohydrochloride of 2-[4-[2-(benzimidazol-2-ylthio)ethyl]piperazin-1-yl]-N-[2,4-bis(methylthio)-6-methyl-3-pyridyl]acetamide (hereinafter referred to as “compound A”) was used.
Male LDL receptor-knockout mice (B6.129S7-Ldlr<tm1Her>/J, Jackson Laboratories) were used for the experiment. The mice aged around 8 weeks were allowed to freely intake Teklad Custom Research Diet (TD.88137, manufactured by Harlan Teklad) as a Western diet for 12 weeks to cause them to develop NASH.
The mice were separated into a control group (hydrochloride added purified water) and a compound A (3 mg/kg, as free form) administered group so that there is no difference in the weights between the groups.
The dose was calculated by 10 mL/kg weight. Hydrochloride added purified water and each drug solution were orally administered to the control group and the compound A administered group, respectively, at an interval of at least 6 hours, once in the morning and once in the afternoon. The mice aged around 8 weeks were fed with the Western diet, and the drug solution was administered at the same time. The dosing period was 12 weeks.
After the end of administration, the mice were fasted overnight. The blood was collected from the abdominal portion of vena cava under anesthesia with pentobarbital sodium (50 mg/kg) and the plasma was fractionated. After collecting the blood, the liver was extracted and frozen for preservation. A part of the liver was frozen in ISOGEN (NIPPON GENE, CO., LTD.) and preserved to analyze the gene expression.
Total cholesterol (TC) and triglyceride (TG) in the plasma were measured using Cholesterol E Test Wako and Triglyceride E Test Wako (both manufactured by Wako Pure Chemical Industries, Ltd.), respectively. Measurement of liver lipid was performed in the following manner. Chloroform and methanol (at a ratio of 2:1) were added to the frozen and preserved liver, which was homogenized, and the resultant mixture was allowed to stand at 4° C. longer than overnight, followed by filtration. A part of the filtrate was fractionated, followed by evaporation and drying. The resultant product was dissolved in isopropanol. TC and TG concentrations were measured using Cholesterol E-Test Wako and Triglyceride E-Test Wako, respectively.
Liver gene expression analysis was performed by extracting RNA from the liver and measuring expression levels of TNF-α genes and CD11c genes in adhesion molecules belonging to an integrin family of macrophages by realtime RT-PCR. The liver was homogenized in ISOGEN to extract RNA according to the instruction manual. The concentration of RNA was measured using a spectrophotometer (ND-1000, NanoDrop Technologies, Inc.). Reverse transcription of mRNA from total RNA was performed using High Capacity cDNA Reverse Transcription Kit (Applied Biosystems) to synthesize cDNA. Gene expression analysis was performed by an intercalator method using SYBR green I or a method using Taqman Probe. Realtime RT-PCR was performed using 7900HT Fast Real-Time PCR System (Applied Biosystems). β-actin was used as an internal standard. After correction with β-actin, the expression levels of respective genes were compared with one another. The sequences of the used primers and probes are as follows: […]
The statistical work was performed using the Windows (registered trademark) version of the SAS Preclinical Package (SAS Institute Japan Inc.).

C57BL/6N-NASH mice = experiment: Effect in murine NASH-hepatoma models (C57BL/6N-NASH mice); details: 100 mg/kg mixed in feed, 5 weeks
Excerpt: Murine NASH-hepatoma models (brand name: C57BL/6 N-NASH mice) developed in Stelic Institute & Co. (See Japanese Patent Application Laid-Open (JP-A) No. 2009-178143) are provided by Charles River Laboratories Japan, Inc. The murine models develop NASH by initiation of insulin resistance and feeding with a high fat diet. The murine models show changes which histologically reflect the conditions of human NASH. The fatty liver (before 6 weeks old) progresses to NASH (7 weeks old), liver cirrhosis (after 10 weeks old), and liver cancer (after 16 weeks old). Accordingly, it is said that the models are useful in research and development of therapeutic drugs for NASH (See Data of SIAM Mice C57BL/6N-NASH Model Mice (http://www.crj.co.jp/topics/pdf/69/6375030/B6N_NASH_leaflet—091019.pdf)).
Then, the effect of the compound A was examined using murine NASH-hepatoma models with a more serious condition than the knockout mice used in Example 1.
Male C57BL/6N-NASH mice (Charles River Laboratories Japan, Inc.) were used for the experiment. Streptozotocin was administered to the mice aged 1 to 2 days and they were fed with a high fat diet (D12492, Research Diet) from 4 weeks old. The mice were purchased at 6 weeks old and continuously fed with the same high fat diet (hereinafter, the mice are referred to as “C57BL/6N-NASH mice”). As a normal control group, normal mice (C57BL/6N, 6 weeks old, Charles River Laboratories Japan, Inc.) were purchased at the same time and they were fed with an ordinary diet (CE-2, CLEA Japan, Inc.) (hereinafter referred to as “normal mice”).
C57BL/6N-NASH mice were used for a control group and a compound A (100 mg/kg) administered group. The number of mice in each group was six. As normal mice (control group), 6 normal mice (C57BL/6N mice) were used.
The compound A and feeds were mixed to feed the mice. C57BL/6N-NASH mice with NASH aged 7 weeks were fed with the feed mixture. The dosing period was 5 weeks.
After the end of administration, the mice were fasted for 4 hours. The blood was collected from the abdominal portion of vena cava under anesthesia, and the plasma was fractionated. After collecting the blood, the liver was extracted. A part of the liver was frozen for preservation, and the other part was embedded in paraffin in a usual manner. Plasma lipid and plasma ALT levels were measured using an autoanalyzer (Labospect003, Hitachi, Ltd.). Measurement of liver lipid was performed in the following manner. That is, chloroform and methanol (at a ratio of 2:1) were added to a part of the frozen and preserved liver, which was homogenized, and the resultant mixture was allowed to stand at 4° C. overnight, followed by filtration. A part of the filtrate was fractionated, followed by evaporation and drying. The resultant product was dissolved in isopropanol. The concentrations of total cholesterol (TC) and triglyceride (TG) were measured using Cholesterol E-Test Wako and Triglyceride E-Test Wako, respectively. Further, paraffin sections and HE-stained specimens were produced to observe liver tissues.

KK-A^y mice = experiment: Effect in KK-Ay mice fed with MCD diet (NASH model); details: 7 weeks
Excerpt: Rodent models fed with methionine-choline deficient diet (MCD diet) are widely used as NASH models (See Hebbard L, George J.: Animal models of nonalcoholic fatty liver disease Nat Rev Gastroenterol Hepatol. 2011 January; 8 (1):35-44. Epub 2010 Nov. 30.). Among them, models of KK-A^y mice are known to cause marked steatohepatitis and fibrosis (See Okumura K., Ikejima K., Kon K., Abe W., Yamashina S., Enomoto N., Takei Y. and Sato N. (2006) Exacerbation of dietary steatohepatitis and fibrosis in obese, diabetic KK-A^y mice Hepatology Research 2006 36:3 (217-228)). It is considered that the mice are excellent models to examine the drug effect on NASH.
Male KK-A^y mice (KK-A^y/TaJcl mice, 12 weeks old, were purchased from CLEA Japan, Inc.) were used for the experiment. The mice were fed with the MCD diet for 7 weeks to cause NASH.
The mice were separated into a control group, a compound A (30 mg/kg) administered group, and a compound A (200 mg/kg) administered group. The drug and feeds were mixed to feed the mice. The dosing period was 7 weeks.
The compound A and feeds were mixed to feed the mice. The mice was fed with the MCD diet, and fed with the feed mixture at the same time.
The methods were performed, in the same manner as in the case of the murine NASH-hepatoma models described in Example 2. In addition to the HE-stained specimens for observing liver tissues, Azan-stained specimens were also prepared.

CSc1cc(C)nc(SC)c1NC(=O)CN1CCN(CCSc2nc3ccccc3[nH]2)CC1 [compound A, monohydrochloride of 2-[4-[2-(benzimidazol-2-ylthio)ethyl]piperazin-1-yl]-N-[2,4-bis(methylthio)-6-methyl-3-pyridyl]acetamide]
total cholesterol (TC) in the plasma ([1]; 3 mg/kg as free form, oral, twice daily, Western diet, FIG. 1A): no significant effect | triglyceride (TG) in the plasma ([1]; 3 mg/kg as free form, oral, twice daily, Western diet, FIG. 1B): no significant effect | total cholesterol (TC) in the liver ([1]; 3 mg/kg as free form, oral, twice daily, Western diet, FIG. 2A): significant decrease | triglyceride (TG) in the liver ([1]; 3 mg/kg as free form, oral, twice daily, Western diet, FIG. 2B): significant decrease | macrophage CD11c gene expression in the liver ([1]; 3 mg/kg, realtime RT-PCR, corrected with β-actin, FIG. 3A): significant decreases | inflammatory cytokine TNF-α expression in the liver ([1]; 3 mg/kg, realtime RT-PCR, corrected with β-actin, FIG. 3B): significant decreases | plasma lipid (C57BL/6N-NASH mice; from 7 weeks old): no effect | plasma ALT level (C57BL/6N-NASH mice; vs NASH control group, FIG. 4): reduced | hepatic TC level (C57BL/6N-NASH mice; vs NASH control group, FIG. 5): reduced | hepatic TG level (C57BL/6N-NASH mice; vs NASH control group, FIG. 6): reduced | development of lipid-droplet deposition in liver (HE-stained) (C57BL/6N-NASH mice; FIG. 7): inhibited | plasma ALT level (KK-A^y mice; 200 mg/kg mixed in feed, FIG. 8): significantly reduced | plasma lipid (KK-A^y mice; 30 or 200 mg/kg mixed in feed): no effect | hepatic TC level (KK-A^y mice; mixed in feed, FIG. 9): significantly reduced | hepatic TG level (KK-A^y mice; mixed in feed, FIG. 10): significantly reduced | development of lipid-droplet deposition in the liver (HE-stained) (KK-A^y mice; mixed in feed, FIG. 11): inhibited | development of fibrosis in the liver (Azan-stained) (KK-A^y mice; mixed in feed, FIG. 12): inhibited
